Measured values as given in publication PMC11224403, “Des-acyl ghrelin reduces alcohol intake and alcohol-induced reward in rodents” (Translational Psychiatry, 2024).

Legend:
[1] = system: monoaminergic neurotransmission in VTA and other brain areas; experiment: Ex vivo monoamine content (HPLC-EC) in brain areas of alcohol-drinking rats after repeated DAG; parameters: species or system Rcc Han Wistar rats
From the text: Male and female Rcc Han Wistar rats (8–12 weeks old at arrival; Envigo, Horst, Netherlands) were used for the alcohol drinking and locomotor activity experiments as they drink alcohol to intoxicating levels. For in vivo microdialysis studies male Wistar rats (Charles River, Calco, Italy) were used as they display robust dopamine levels in NAc shell after alcohol injection. […] All rodents were allowed to habituate to the animal facility at least one week before they entered an experiment. During housing (20 °C with 50% humidity) the rodents had free access to water and standard chow (Teklad Rodent Diet; Envigo, Madison, WI, USA). These experiments were approved by the Ethics Committee for Animal Experiments (ethical numbers: 1457/18, 3276/18, 1556/18, 3348/20; Gothenburg, Sweden) and followed the ARRIVE guidelines. The sample sizes of each experiment were based on previous experience in which statistical significance has been detected. The person who conducted the experiments, and analyzed the collected data was aware of the treatment allocation. Only preset exclusion criteria were used when analyzing the data obtained in attempts to exclude confounding factors in analyzing data. In the alcohol drinking experiments leaking bottles and low alcohol consumption (<3.0 g/kg for males; <3.5 g/kg for females) were preset exclusion criteria. The preset exclusion criterion in the ex vivo HPLC-EC, ELISA, and recombinant cell line experiments was contamination of the sample. Misplaced probes, technical difficulties, and damages to the surgery area were preset exclusion criteria for the in vivo microdialysis experiment. Intra-cage male aggression was the preset exclusion criterion for the locomotor activity and CPP experiments. To minimize tentative confounding factors, the order of treatments was stratified, with treatments being mixed for each animal cage and for each apparatus used as well as balancing the alcohol intake between future treatment groups. Although each experiment only was performed once, they were separated over different laboratory days with equal data obtained between sessions.
Individually housed rats had intermittent access to an alcohol (20%) bottle and a water bottle, three 24-h sessions per week, and only water bottles the remaining days. A reversed light/dark cycle was used, and the bottles were changed when the lights went out. First, the rats consumed alcohol for 10 weeks (baseline drinking), where the bottles and food were weighed daily and the body weight weekly. During treatments, the bottles and food were weighed at 4- and/or 24-h and the body weight was measured daily. In the first drinking experiment, the potential of DAG to reduce alcohol consumption was tested and therefore, vehicle or DAG (1 mg/kg) was acutely injected into male (n = 12) or female (n = 12) rats. The second drinking experiment was conducted to establish the effects of lower DAG doses on alcohol intake. Therefore, separate male (n = 18) or female (n = 18) rats, were acutely injected with lower DAG doses (0.5 or 0.25 mg/kg) or vehicle. The third alcohol drinking experiment evaluated the ability of repeated DAG injections to lower alcohol drinking. Therefore, additional male (n = 24) and female (n = 24) rats were injected with either vehicle or DAG (1 mg/kg) at three alcohol-drinking sessions. At the end of the third drinking session, the rats were euthanized and decapitated, and the brains were placed in a brain-slicing matrix. Brain areas central for reward (VTA, NAc shell, NAc core, LDTg, dorsal striatum, hippocampus, paraventricular thalamus, prefrontal cortex, central amygdala) were punched and stored at −80 °C. Each sample was homogenized, and then the monoamine content in the supernatant was analyzed in an HPLC-EC system as described before, allowing tentative determination of brain regions, directly or indirectly, affected by DAG.
The obtained data are normally distributed and with equal variance. […]

male and female rats = experiment: Locomotor activity test, DAG per se, rats; format: in vivo, Rcc Han Wistar rats; conditions: DAG 0.5, 1.0 or 2.0 mg/kg, 60 min recording, n = 5–6 per group
From the text: Male and female Rcc Han Wistar rats (8–12 weeks old at arrival; Envigo, Horst, Netherlands) were used for the alcohol drinking and locomotor activity experiments as they drink alcohol to intoxicating levels. For in vivo microdialysis studies male Wistar rats (Charles River, Calco, Italy) were used as they display robust dopamine levels in NAc shell after alcohol injection. […] All rodents were allowed to habituate to the animal facility at least one week before they entered an experiment. During housing (20 °C with 50% humidity) the rodents had free access to water and standard chow (Teklad Rodent Diet; Envigo, Madison, WI, USA). […] The sample sizes of each experiment were based on previous experience in which statistical significance has been detected. The person who conducted the experiments, and analyzed the collected data was aware of the treatment allocation. […]
Locomotor activity tests were conducted in ventilated and dim-lit (4 lux) open field arenas (420 × 420 × 200 mm; Med Associates Inc; Georgia, Vermont, USA). Infra-red beams detected distance traveled, number of jumps, vertical counts, average velocity, stereotypic counts, number of inner zone entries, and time spent in the inner/outer zones of each animal. […]
The obtained data are normally distributed and with equal variance. The data from drinking experiments were analyzed by unpaired t-test or repeated two-way ANOVA. […]

[2] = system: human transporter of dopamine (DAT); experiment: Transporter inhibition in recombinant cell line (neurotransmitter transporter uptake assay), DAT; format: cell-based; conditions: 8.3 µM DAG; CHO-K1 cells, 3 h incubation, fluorescence dye
5HT2A receptor = experiment: Aquoscreen receptor activity assay, 5HT2A; format: cell-based, human; conditions: 50 µM DAG in results (8.3 µM in methods); luminescence, triplicates
CB1 receptor = experiment: Aquoscreen receptor activity assay, CB1; format: cell-based, human; conditions: 50 µM DAG in results (8.3 µM in methods); luminescence, triplicates
µ-opioid receptor = format: cell-based, human; conditions: 50 µM DAG in results (8.3 µM in methods); luminescence, triplicates
[3] = alcohol-drinking female rats, repeated DAG n = 7 vs vehicle n = 9
[4] = alcohol-drinking male rats, repeated DAG n = 8 vs vehicle n = 7

des-acyl ghrelin (GSSFLSPEHQRVQQRKESKKPPAKLQPR; Ghrelin-28 non-acylated; UniProt Q9UBU3 24-51, looked up) [DAG, non-octanoylated form of ghrelin; purchased from Tocris (printed Tocrise Bioscience), dissolved in 0.9% NaCl]
ex vivo DOPAC level, VTA [1, 3]: did not change the levels of D DOPAC (t14 = 0.41, P = 0.6904)
ex vivo HVA level, VTA [1, 3]: did not change the levels of D DOPAC (t14 = 0.41, P = 0.6904), E HVA (t14 = 0.66, P = 0.5196)
ex vivo dopamine level, VTA [1, 3]: did not change the levels of D DOPAC (t14 = 0.41, P = 0.6904), E HVA (t14 = 0.66, P = 0.5196), or F dopamine (t14 = 0.12, P = 0.9080)
dopamine turnover, 5-HIAA, serotonin and serotonin turnover, VTA ([1]; alcohol-drinking male or female rats, repeated DAG): neither affected the dopamine turnover, 5-hydroxy indole acetic acid (5-HIAA), serotonin, nor serotonin turnover
ex vivo noradrenaline level, VTA ([1]; alcohol-drinking male rats, repeated DAG): tended to elevate the ex vivo noradrenaline levels in this area of male rats (Supplementary Fig. 4E, P = 0.0819)
ex vivo DOPAC level, VTA [1, 4]: increased the ex vivo levels of A DOPAC (t13 = 2.94, P = 0.0116)
ex vivo HVA level, VTA [1, 4]: increased the ex vivo levels of A DOPAC (t13 = 2.94, P = 0.0116) and B HVA (t13 = 3.00, P = 0.0102)
ex vivo dopamine level, VTA [1, 4]: tended to elevate the dopamine levels (t13 = 1.72, P = 0.1091)
monoaminergic neurotransmission in other brain areas ([1]; males and females, repeated DAG, central amygdala, hippocampus, laterodorsal tegmental area, NAc core and shell, prefrontal cortex, paraventricular thalamus, striatum, data not shown): Neither in males nor females, DAG altered the monoaminergic neurotransmission
locomotor activity, DAG per se (male and female rats; female rats): did not influence locomotor activity
locomotor activity, DAG per se (male and female rats; male rats): did not influence locomotor activity
inhibition of DAT [2]: no inhibition
activation of 5HT2A (5HT2A receptor): no activation
activation of CB1 (CB1 receptor): no activation
activation of µ-opioid receptor (µ-opioid receptor): no activation
